Results on 2 molecules are retold here after patent publication US11426426B2, “Pharmaceutical composition for preventing or treating inflammatory diseases, containing nitrogen monoxide-sensitive acrylamide-based polymer” (POSTECH ACADEMY-INDUSTRY FOUNDATION, priority 2018, dated 2022).

For one data set, the system named is red blood cells. The experiment in a line: Evaluation of hemolysis. In kind it is cell-based, mice. To be noted: 1 mg/mL in DPBS; 1×10^8 mouse red blood cells; 4 hours at 37° C.; absorbance at 450 nm. How it is done: In order to check whether the nitric oxide-sensitive hydrogel has in vivo stability after being administered into the body, first, red blood cells were separated from the blood collected from mice. A DPBS solution including 1 mg/mL Example 1, the nitric oxide-cleavable crosslinker (NOCCL), and acrylamide was introduced into 1×10^8 cells of the red blood cells thus prepared, and the mixture was thoroughly mixed. This solution was left to stand for 4 hours in a constant temperature tank at 37° C. Next, the solution was centrifuged, subsequently the supernatant was transferred onto a 96-well plate, and the absorbance at 450 nm was measured to calculate the degree of hemolysis.

Data set [1] is described as follows: Nitric oxide scavenging ability (Griess reagent). How it is done: In order to check whether the nitric oxide-cleavable crosslinker (NOCCL) produced according to Production Example 1 can actually scavenge nitric oxide, Griess reagent was used, and 100 μM nitric oxide and 10 μM nitric oxide were treated to check the scavenging ability of the nitric oxide-cleavable crosslinker. At this time, N,N′-methylene bisacrylamide (BIS) was used as a comparative group, and water was used as a control group.

With `C=CC(N)=O` [acrylamide], the degree of hemolysis result in the data set with red blood cells is recorded as “up to 99%”.

Take `C=CC(=O)Nc1ccc(NC(=O)C=C)c(N)c1` [nitric oxide-cleavable crosslinker, N,N-(2-amino-1,4-phenylene) diacrylamide]: the “nitric oxide scavenged as compared to the comparative group” value in data set [1] (100 μM and 10 μM nitric oxide, comparative group BIS) is ≥ 30%. For the same molecule, the “nitric oxide scavenging ability” value in data set [1] (high concentration (100 μM) of nitric oxide) was ≥ 50%. Moreover, the degree of hemolysis result in the data set with red blood cells is on record as “did not cause hemolysis”.
